Reference: patent US10821115B2, “Compounds that inhibit Mcl-1 protein” (priority 2017, dated 2020)
Like-named read-outs stand apart in the source and are kept apart here.

Key:
[1] = molecular target: recombinant human Mcl-1 (residues 171-327) / Bim interaction (Homo sapiens (Human), UniProt Q07820); assay: biochemical; assay type: binding; settings: read-out: Mcl-1 HTRF IC50
Experimental: The inhibition of the Mcl-1/Bim interaction was measured using a time-resolved fluorescence resonance energy transfer (TR-FRET) assay. […] The TR-FRET assay was conducted in a 384-well white OptiPlate™ (PerkinElmer, Waltham, Mass.) in a total volume of 40 μL. The reaction mixture contained 0.1 nM Mcl-1(171-327), 0.05 nM biotin-Bim (51-76), 0.05 nM LANCE® Eu-W1024 Anti-6×His (PerkinElmer), 0.072 nM Streptavidin-Xlent (Cisbio, Bedford, Mass.), and serially diluted test compounds in the binding buffer of 20 mM Hepes, pH 7.5, 150 mM NaCl, 0.016 mM Brij®35, and 1 mM dithiothreitol. Test compounds were pre-incubated with Mcl-1(171-327) and biotin-Bim (51-76) for 60 min before addition of the detection mixture (LANCE® Eu-W1024 Anti-6×His and Streptavidin-Xlent). The reaction plates were further incubated overnight and then were read on an Envision® multimode reader (PerkinElmer). Fluorescence signals were measured at 620 nm (40-nm bandwidth) and 665 nm (7.5-nm bandwidth) with a 60 is delay after excitation at 320 nm (75-nm bandwidth). The signal ratio at 665/620 nm corresponded to the Mcl-1/Bim interaction and was used in all data analyses. The IC50 values of test compounds were determined from duplicate data by analyzing competition curves using a four-parameter sigmoidal model in GraphPad Prism (GraphPad Software, San Diego, Calif.) or in Genedata Screener® (Genedata, Basel, Switzerland).

[2] = system: human multiple myeloma cell line, OPM-2; assay: Cell viability assay (OPM-2 10 FBS), CellTiter-Glo; assay type: cell-based
How it was run: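 3000 cells/well, RPMI 1640 + 10% FBS; serial compound dilutions, 16 h, 37 °C/5% CO2.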

[3] = TR-FRET, Mcl-1(171-327) / biotin-Bim (51-76)
[4] = Homo sapiens, OPM-2, 16 h, read-out: OPM-2 10% FBS IC50 IP, OPM-2 cells, 10% FBS, 16 h, CellTiter-Glo
[5] = read-out: OPM-2 10% FBS IC50 IP, OPM-2 cells, 10% FBS, 16 h, CellTiter-Glo

Chain of recombinant human Mcl-1 (residues 171-327) / Bim interaction (Q07820 171-327): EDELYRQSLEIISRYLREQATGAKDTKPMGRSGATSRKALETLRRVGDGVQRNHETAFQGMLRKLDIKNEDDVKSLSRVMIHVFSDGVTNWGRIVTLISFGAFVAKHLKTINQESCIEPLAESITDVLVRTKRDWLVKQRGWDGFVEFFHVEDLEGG

Compound	IC50 [1, 3] [nM]	IC50 [2, 4] [nM]	IC50 [2, 5] [nM]	IC50 ([1]; 0.1 nM Mcl-1(171-327), 0.05 nM biotin-Bim (51-76)) [nM]	IC50 ([2]; Homo sapiens, OPM-2, 16 h, read-out: OPM-2 10% FBS IC50 IP, OPM-2 cells, 10% FBS, 16 h incubation) [nM]
Cc1ncc([C@]2(O)/C=C/C[C@H](C)[C@@H](C)S(=O)(=O)NC(=O)c3ccc4c(c3)N(C[C@@H]3CC[C@H]32)C[C@@]2(CCCc3cc(Cl)ccc32)CO4)n1C (single isomer, unassigned) [Example 100559]	0.113	1030	–	–	–
CO[C@]1(C=O)/C=C/C[C@H](C)[C@@H](Cc2ccccc2)S(=O)(=O)NC(=O)c2ccc3c(c2)N(C[C@@H]2CC[C@H]21)C[C@@]1(CCCc2cc(Cl)ccc21)CO3 (single isomer, unassigned) [Example 100575]	1.3	2500	–	–	–
CC[C@@H]1CC/C=C/[C@@](OC)(C2SCCCS2)[C@@H]2CC[C@H]2CN2C[C@@]3(CCCc4cc(Cl)ccc43)COc3ccc(cc32)C(=O)NS1(=O)=O (single isomer, unassigned) [Example 100579]	0.214	757	–	–	–
CC[C@@H]1CC/C=C/[C@](C=O)(OC)[C@@H]2CC[C@H]2CN2C[C@@]3(CCCc4cc(Cl)ccc43)COc3ccc(cc32)C(=O)NS1(=O)=O (single isomer, unassigned) [Example 100580]	0.877	6580	–	–	–
CO[C@@]1(C)/C=C/C[C@H](C)[C@@H](CCO)S(=O)(=O)NC(=O)c2ccc3c(c2)N(C[C@@H]2CC[C@H]21)C[C@@]1(CCCc2cc(Cl)ccc21)CO3 (single isomer, unassigned) [Example 100593]	0.464	215	–	–	–
CO[C@@]1(C)/C=C/C[C@H](C)[C@@H](CCN2CCOCC2)S(=O)(=O)NC(=O)c2ccc3c(c2)N(C[C@@H]2CC[C@H]21)C[C@@]1(CCCc2cc(Cl)ccc21)CO3 (single isomer, unassigned) [Example 100595]	0.157	–	133	–	–
CO[C@@]1(C)/C=C/C[C@H](C)[C@@H](CCO)S(=O)(=O)NC(=O)c2ccc3c(c2)N(C[C@@H]2CC[C@H]21)C[C@@]1(CCCc2cc(Cl)ccc21)CO3 (single isomer, unassigned) [Example 100596]	0.229	–	186	–	–
CC[C@@H]1CC/C=C/[C@](COCCN2CCOCC2)(OC)[C@@H]2CC[C@H]2CN2C[C@@]3(CCCc4cc(Cl)ccc43)COc3ccc(cc32)C(=O)NS1(=O)=O (single isomer, unassigned) [Example 100597]	0.263	577	–	–	–
CO[C@@]1(C)/C=C/C[C@H](C)[C@@H](CCOS(C)(=O)=O)S(=O)(=O)NC(=O)c2ccc3c(c2)N(C[C@@H]2CC[C@H]21)C[C@@]1(CCCc2cc(Cl)ccc21)CO3 (single isomer, unassigned) [Example 100598]	0.077	–	188	–	–
CO[C@@]1(C)/C=C/C[C@H](C)[C@@H](CCN2CCOCC2)S(=O)(=O)NC(=O)c2ccc3c(c2)N(C[C@@H]2CC[C@H]21)C[C@@]1(CCCc2cc(Cl)ccc21)CO3 (single isomer, unassigned) [Example 100599]	1.15	–	1140	–	–
C[C@@H]1[C@@H](C)C/C=C/[C@](C)(O)[C@@H]2CC[C@H]2CN2C[C@@]3(CCCc4cc(Cl)ccc43)COc3ccc(nc32)C(=O)NS1(=O)=O (single isomer, unassigned) [Example 100600]	0.445	528	–	–	–
C[C@@H]1[C@@H](C)C/C=C/[C@@](C)(O)[C@@H]2CC[C@H]2CN2C[C@@]3(CCCc4cc(Cl)ccc43)COc3ccc(nc32)C(=O)NS1(=O)=O (single isomer, unassigned) [Example 100601]	0.114	239	–	–	–
C[C@@H]1[C@@H](C)C/C=C/[C@@](CO)(OCC(F)(F)F)[C@@H]2CC[C@H]2CN2C[C@@]3(CCCc4cc(Cl)ccc43)COc3ccc(cc32)C(=O)NS1(=O)=O (single isomer, unassigned) [Example 100604]	0.723	4110	–	–	–
CC[C@]1(CO)/C=C/C[C@H](C)[C@@H](C)S(=O)(=O)NC(=O)c2ccc3c(c2)N(C[C@@H]2CC[C@H]21)C[C@@]1(CCCc2cc(Cl)ccc21)CO3 (single isomer, unassigned) [Example 100605]	3.25	7950	–	–	–
CCOC1(CN2CCN(C(C)C)CC2)/C=C/C[C@H](C)[C@@H](C)S(=O)(=O)NC(=O)c2ccc3c(c2)N(C[C@@H]2CC[C@H]21)C[C@@]1(CCCc2cc(Cl)ccc21)CO3 (stereo in doubt) [Example 115, (1S,3′R,6′R,7′R,8′E,11′S,12′R)-6-chloro-7′-ethoxy-11′,12′-dimethyl-7′-((4-(1-methylethyl)-1-piperazinyl)methyl)-3,4-dihydro-2H,15′H-spiro[naphthalene-1,22′-[20]oxa[13]thia[1,14]diazatetracyclo [14.7.2.0~3,6~.0~19,24~]pentacosa[8,16,18,24]tetraen]-15′-one 13′,13′-dioxide]	–	–	–	1.37	686
C[C@@H]1[C@@H](C)CC2C=CC[C@@](O)(C2)[C@@H]2CC[C@H]2CN2C[C@@]3(CCCc4cc(Cl)ccc43)COc3ccc(cc32)C(=O)NS1(=O)=O (stereo in doubt) [Example 100058, (1S,3′R,6′R,7′R,11′S,13′S,14′R)-6-chloro-7′-hydroxy-13′,14′-dimethyl-3,4-dihydro-2H,17′H-spiro[naphthalene-1,24′-[22]oxa[15]thia[1,16]diazapentacyclo [16.7.2.1~7,11~.0~3,6~.0~21,26~]octacosa [9,18,20,26]tetraen]-17′-one 15′,15′-dioxide]	1.76	3360	–	–	–
C[C@@H]1[C@@H](C)C/C=C/[C@@](O)(C[S@@+](C)[O-])[C@@H]2CC[C@H]2CN2C[C@@]3(CCCc4cc(Cl)ccc43)COc3ccc(cc32)C(=O)NS1(=O)=O (stereo in doubt) [Example 100074]	0.731	3020	–	–	–
C[C@@H]1[C@@H](C)C/C=C/[C@@](O)(C[S@@+](C)[O-])[C@@H]2CC[C@H]2CN2C[C@@]3(CCCc4cc(Cl)ccc43)COc3ccc(cc32)C(=O)NS1(=O)=O (stereo in doubt) [Example 100075]	0.671	–	1820	–	–
C=CC[C@@]1(O)/C=C/C[C@H](C)[C@@H](C)S(=O)(=O)NC(=O)c2ccc3c(c2)N(C[C@@H]2CC[C@H]21)C[C@@]1(CCCc2cc(Cl)ccc21)CO3 (stereo in doubt) [Example 100127]	0.175	–	108	–	–
C[C@@H]1[C@@H](C)C/C=C/[C@@](O)(CCCO)[C@@H]2CC[C@H]2CN2C[C@@]3(CCCc4cc(Cl)ccc43)COc3ccc(cc32)C(=O)NS1(=O)=O (stereo in doubt) [Example 100128]	0.089	217	–	–	–
C[C@@H]1[C@@H](C)CCC[C@@]2(C[C@H](C)C(=O)O2)[C@@H]2CC[C@H]2CN2C[C@@]3(CCCc4cc(Cl)ccc43)COc3ccc(cc32)C(=O)NS1(=O)=O (stereo in doubt) [Example 100129]	2.4	4870	–	–	–
C[C@@H]1[C@@H](C)C/C=C/[C@]2(CCCO2)[C@@H]2CC[C@H]2CN2C[C@@]3(CCCc4cc(Cl)ccc43)COc3ccc(cc32)C(=O)NS1(=O)=O (stereo in doubt) [Example 100132]	0.543	675	–	–	–
CO[C@@]1(CO)CCC[C@H](C)[C@@H](C)S(=O)(=O)NC(=O)c2ccc3c(c2)N(C[C@@H]2CC[C@H]21)C[C@@]1(CCCc2cc(Cl)ccc21)CO3 (stereo in doubt) [Example 100133, (1S,3′R,6′R,7′S,11′S,12′R)-6-chloro-7′-(hydroxymethyl)-7′-methoxy-11′,12′-dimethyl-3,4-dihydro-2H,15′H-spiro[naphthalene-1,22′-[20]oxa[13]thia[1,14]diazatetracyclo [14.7.2.0~3,6~.0~19,24~]pentacosa[16,18,24]rien]-15′-one 13′,13′-dioxide]	0.885	–	984	–	–
COC[C@]1(O)CCC[C@H](C)[C@@H](C)S(=O)(=O)NC(=O)c2ccc3c(c2)N(C[C@@H]2CC[C@H]21)C[C@@]1(CCCc2cc(Cl)ccc21)CO3 (stereo in doubt) [Example 100149, (1S,3′R,6′R,7′S,11′S,12′R)-6-chloro-7′-hydroxy-7′-(methoxymethyl)-11′,12′-dimethyl-3,4-dihydro-2H,15′H-spiro[naphthalene-1,22′-[20]oxa[13]thia[1,14]diazatetracyclo [14.7.2.0~3,6~.0~19,24~]pentacosa[16,18,24]rien]-15′-one 13′,13′-dioxide]	0.214	186	–	–	–
C[C@@H]1[C@@H](C)CCC[C@@](O)(CC(=O)N2CCOC2=O)[C@@H]2CC[C@H]2CN2C[C@@]3(CCCc4cc(Cl)ccc43)COc3ccc(cc32)C(=O)NS1(=O)=O (stereo in doubt) [Example 100154, (1S,3′R,6′R,7′R,11′S,12′R)-6-chloro-7′-hydroxy-11′,12′-dimethyl-7′-(2-oxo-2-(2-oxo-1,3-oxazolidin-3-yl)ethyl)-3,4-dihydro-2H,15′H-spiro[naphthalene-1,22′-[20]oxa[13]thia[1,14]diazatetracyclo [14.7.2.0~3,6~.0~19,24~]pentacosa[16,18,24]rien]-15′-one 13′,13′-dioxide]	1.72	–	1070	–	–
C[C@@H]1[C@@H](C)CCC[C@](O)(CS(C)(=O)=O)[C@@H]2CC[C@H]2CN2C[C@@]3(CCCc4cc(Cl)ccc43)COc3ccc(cc32)C(=O)NS1(=O)=O (stereo in doubt) [Example 100161]	0.355	757	–	–	–
C[C@@H]1[C@@H](C)CCC[C@]2(CO2)[C@@H]2CC[C@H]2CN2C[C@@]3(CCCc4cc(Cl)ccc43)COc3ccc(cc32)C(=O)NS1(=O)=O (stereo in doubt) [Example 100164]	0.917	967	–	–	–
